# Reference: paper PMC12141164, “Phase-1 study of vamotinib (PF-114), a 3rd generation BCR::ABL1 tyrosine kinase-inhibitor, in chronic myeloid leukaemia” (Annals of Hematology, 2025)
# Read-outs that look alike come from different tables or passages of the source.
# Columns and labels:
# [1] = Pharmacokinetics in plasma after single- and multiple-dose administration; type: in vivo, human
# Experimental: Blood samples were obtained to evaluate pharmacokinetics and pharmacodynamics (Tables S1, S1.1, S1.2). Data on phosphorylated CrkL protein (pCrkL) concentration were evaluated in samples from 4 subjects.
# Pharmacokinetic measurements were done on days 1 and 29–30 of treatment. […] Steady-state was reached after 8 days of dosing, Fig. 1.
# PF-114 was determined in human plasma samples using validated analytical method. […] The analytical method used 200 µL of plasma sample for each analysis. Analyte was isolated from plasma by a solid-phase extraction procedure performed on Oasis MCX extraction columns.
# According to the Protocol, population for the pharmacokinetic analysis consists of all patients, who took at least one dose of PF-114, with respect to which sufficient amount of data on concentration of the study drug in the blood. The analysis of data on pharmacokinetic properties of the drug is carried out in this population of patients. All PK analyses will be presented on two subsets described in more detail below:
# The PK concentration set (PK-C): This set includes all treated subjects who have at least 1 measured concentration.
# The PK parameter analysis set (PK-P): This set consists of subjects from PK-C, who have no major protocol violation relevant to the evaluation of Pharmacokinetics, and who have at least 1 estimated PK parameter. Listings include all available raw data without any exclusions.
# [2] = system: BaF3 cells expressing BCR::ABL1^T315I; design: method as in PMID 25394714; settings: read-out: IC50 of cytotoxicity; cited from earlier work
# EPHA6 = settings: kinase inhibition profiles; cited from earlier work
# TAK1 = settings: kinase inhibition profiles; cited from earlier work
# TIE2 = settings: kinase inhibition profiles; cited from earlier work
# VEGFR2 = settings: kinase inhibition profiles; cited from earlier work
# ZAK = settings: kinase inhibition profiles; cited from earlier work
# rats = system: rats; design: method as in PMID 25394714; settings: pre-clinical toxicology; cited from earlier work
# dogs = system: dogs; design: method as in PMID 25394714; settings: pre-clinical toxicology; cited from earlier work
# [3] = human, plasma, oral, 50 mg, Multiple-dose administration
# [4] = human, plasma, oral, 50 mg, Single-dose administration
# [5] = human, plasma, oral, 100 mg, Multiple-dose administration
# [6] = human, plasma, oral, 100 mg, Single-dose administration
# [7] = human, plasma, oral, 200 mg, Multiple-dose administration
# [8] = human, plasma, oral, 200 mg, Single-dose administration
# [9] = human, plasma, oral, 300 mg, Multiple-dose administration
# [10] = human, plasma, oral, 300 mg, Single-dose administration
# [11] = human, plasma, oral, 400 mg, Multiple-dose administration
# [12] = human, plasma, oral, 400 mg, Single-dose administration
# [13] = human, plasma, oral, 500 mg, Multiple-dose administration
# [14] = human, plasma, oral, 500 mg, Single-dose administration
# [15] = human, plasma, oral, 600 mg, Multiple-dose administration
# [16] = human, plasma, oral, 600 mg, Single-dose administration
# [17] = human, plasma, oral, 750 mg, Single-dose administration
smiles,measurement,setting,value
Cc1ccc(C(=O)Nc2ccc(CN3CCN(C)CC3)c(C(F)(F)F)c2)cc1C#Cc1nnc2ccccn12 [vamotinib],"Ctrough, Mean","[1]; Multiple-dose administration, 50 mg","7,35 ng/ml"
same,"Ctrough, Mean","[1]; Multiple-dose administration, 100 mg","8,90 ng/ml"
same,"Ctrough, Mean","[1]; Multiple-dose administration, 200 mg","21,92 ng/ml"
same,"Ctrough, Mean","[1]; Multiple-dose administration, 300 mg","22,45 ng/ml"
same,"Ctrough, Mean","[1]; Multiple-dose administration, 400 mg","35,34 ng/ml"
same,"Ctrough, Mean","[1]; Multiple-dose administration, 500 mg","38,40 ng/ml"
same,"Ctrough, Mean","[1]; Multiple-dose administration, 600 mg","49,78 ng/ml"
same,linearity of pharmacokinetics (concentration-time profiles),[1]; dose range 50–750 mg,linear or near-linear pharmacokinetics
same,half-life,"[1]; human, plasma, oral",13.5 h
same,Cmax,[1]; [3],33.3 ng/mL
same,Tmax,[1]; [3],1.9 h
same,AUC(0-t),"[1]; human, plasma, oral, 50 mg, Multiple-dose administration, 50 mg, read-out: AUC0-24, Mean",445 ng·h/mL
same,Cmax,[1]; [4],25.3 ng/mL
same,Tmax,[1]; [4],2.67 h
same,AUC(0-t),"[1]; human, plasma, oral, 50 mg, Single-dose administration, 50 mg, read-out: AUC0-t, Mean",252 ng·h/mL
same,Cmax,[1]; [5],94 ng/mL
same,Tmax,[1]; [5],3.36 h
same,AUC(0-t),"[1]; human, plasma, oral, 100 mg, Multiple-dose administration, 100 mg, read-out: AUC0-24, Mean",1260 ng·h/mL
same,Cmax,[1]; [6],89.7 ng/mL
same,Tmax,[1]; [6],4.67 h
same,AUC(0-t),"[1]; human, plasma, oral, 100 mg, Single-dose administration, 100 mg, read-out: AUC0-t, Mean",1070 ng·h/mL
same,Cmax,[1]; [7],109 ng/mL
same,Tmax,[1]; [7],3.36 h
same,AUC(0-t),"[1]; human, plasma, oral, 200 mg, Multiple-dose administration, 200 mg, read-out: AUC0-24, Mean",1580 ng·h/mL
same,Cmax,[1]; [8],82.1 ng/mL
same,Tmax,[1]; [8],3.46 h
same,AUC(0-t),"[1]; human, plasma, oral, 200 mg, Single-dose administration, 200 mg, read-out: AUC0-t, Mean",1060 ng·h/mL
same,Cmax,[1]; [9],148 ng/mL
same,Tmax,[1]; [9],4.52 h
same,AUC(0-t),"[1]; human, plasma, oral, 300 mg, Multiple-dose administration, 300 mg, read-out: AUC0-24, Mean",2260 ng·h/mL
same,Cmax,[1]; [10],125 ng/mL
same,Tmax,[1]; [10],3.58 h
same,AUC(0-t),"[1]; human, plasma, oral, 300 mg, Single-dose administration, 300 mg, read-out: AUC0-t, Mean",1630 ng·h/mL
same,Cmax,[1]; [11],177 ng/mL
same,Tmax,[1]; [11],4 h
same,AUC(0-t),"[1]; human, plasma, oral, 400 mg, Multiple-dose administration, 400 mg, read-out: AUC0-24, Mean",2710 ng·h/mL
same,Cmax,[1]; [12],120 ng/mL
same,Tmax,[1]; [12],4.72 h
same,AUC(0-t),"[1]; human, plasma, oral, 400 mg, Single-dose administration, 400 mg, read-out: AUC0-t, Mean",1740 ng·h/mL
same,Cmax,[1]; [13],228 ng/mL
same,Tmax,[1]; [13],4.04 h
same,AUC(0-t),"[1]; human, plasma, oral, 500 mg, Multiple-dose administration, 500 mg, read-out: AUC0-24, Mean",3490 ng·h/mL
same,Cmax,[1]; [14],116 ng/mL
same,Tmax,[1]; [14],3.96 h
same,AUC(0-t),"[1]; human, plasma, oral, 500 mg, Single-dose administration, 500 mg, read-out: AUC0-t, Mean",1500 ng·h/mL
same,Cmax,[1]; [15],179 ng/mL
same,Tmax,[1]; [15],3.62 h
same,AUC(0-t),"[1]; human, plasma, oral, 600 mg, Multiple-dose administration, 600 mg, read-out: AUC0-24, Mean",2800 ng·h/mL
same,Cmax,[1]; [16],212 ng/mL
same,Tmax,[1]; [16],4.65 h
same,AUC(0-t),"[1]; human, plasma, oral, 600 mg, Single-dose administration, 600 mg, read-out: AUC0-t, Mean",3020 ng·h/mL
same,Cmax,[1]; [17],225 ng/mL
same,Tmax,[1]; [17],4.5 h
same,AUC(0-t),"[1]; human, plasma, oral, 750 mg, Single-dose administration, 750 mg, read-out: AUC0-t, Mean",3290 ng·h/mL
same,time of dosing to reach steady-state,[1]; once daily dosing,8 days
same,concentration in the blood during the day,[1]; starting from a dose of 200 mg,exceeds 75 nM
same,IC50,[2],0.075 µM
same,inhibition of EPHA6,EPHA6,not
same,inhibition of TAK1,TAK1,not
same,inhibition of TIE2,TIE2,not
same,inhibition of VEGFR2,VEGFR2,not
same,inhibition of ZAK,ZAK,not
same,Rash,rats,Rash was seen
same,Rash,dogs,Rash was seen
